molecular target: T1, chimeric human H3 receptor (Homo sapiens, UniProt Q9Y5N1); test: Chimeric human H3 receptor screening GTP binding assay (inhibition of histamine-stimulated GTP-gamma35S binding, Example 8); format: biochemical; conditions: Table II "Ki", symbol †, 4 μM of the compound, 1 μM histamine, read-out: percent inhibition of the signal obtained with 1 μM histamine
T1 construct: made in house; host or cells: Sf9 insect cells (baculovirus); P2 membrane preparation
Procedure, shortened: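 Sf9 membranes co-expressing chimeric human H3 receptor and heterotrimeric G-protein, 35 μg per reaction, incubated 60 min at room temperature with 4 μM compound, 1 μM histamine, 10 μM GDP and […] GTP-gamma35S at pH 7.4. Filter-bound radioactivity counted. Result expressed as percent inhibition of the histamine signal after subtracting non-specific binding (10 μM GTP-gammaS).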

T1 sequence (Q9Y5N1 with tags, fused parts or gaps): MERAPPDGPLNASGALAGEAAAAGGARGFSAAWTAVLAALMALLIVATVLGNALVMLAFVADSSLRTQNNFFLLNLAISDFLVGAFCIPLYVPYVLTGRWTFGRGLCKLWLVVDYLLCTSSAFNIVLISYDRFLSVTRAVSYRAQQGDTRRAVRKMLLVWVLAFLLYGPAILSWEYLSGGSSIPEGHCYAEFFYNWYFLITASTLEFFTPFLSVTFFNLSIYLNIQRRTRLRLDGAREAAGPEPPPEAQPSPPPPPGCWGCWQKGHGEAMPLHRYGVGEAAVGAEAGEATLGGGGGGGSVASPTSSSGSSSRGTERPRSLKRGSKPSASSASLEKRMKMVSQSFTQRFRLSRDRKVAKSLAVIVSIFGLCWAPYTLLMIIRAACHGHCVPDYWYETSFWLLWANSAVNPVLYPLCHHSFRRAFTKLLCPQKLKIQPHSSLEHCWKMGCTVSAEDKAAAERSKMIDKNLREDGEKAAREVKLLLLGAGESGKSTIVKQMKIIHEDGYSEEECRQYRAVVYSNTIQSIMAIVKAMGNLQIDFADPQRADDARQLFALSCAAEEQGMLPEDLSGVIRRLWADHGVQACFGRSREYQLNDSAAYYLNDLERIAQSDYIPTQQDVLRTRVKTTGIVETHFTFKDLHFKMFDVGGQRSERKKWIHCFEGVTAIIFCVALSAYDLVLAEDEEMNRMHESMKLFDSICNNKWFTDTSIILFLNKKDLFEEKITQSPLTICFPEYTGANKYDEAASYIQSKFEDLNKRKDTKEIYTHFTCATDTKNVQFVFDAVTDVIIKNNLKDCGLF

Inhibition at 4 µM, ≥ 90%:
CCCOc1ccc(-c2ccc3c(c2)CCN(CC(=O)N2CCN(C(C)C)CC2)C3)cc1 [Compound 547, 2-[2-(4-isopropylpiperazin-1-yl)-2-oxoethyl]-6-(4-propoxyphenyl)-1,2,3,4-tetrahydroisoquinoline]
COc1ccc(-c2ccc3c(c2)CCN(CC(=O)N2CCN(C4CCC4)CC2)C3)c(C)c1 [Compound 548, 2-[2-(4-cyclobutylpiperazin-1-yl)-2-oxoethyl]-6-(4-methoxy-2-methylphenyl)-1,2,3,4-tetrahydroisoquinoline]
COc1ccc(-c2ccc3c(c2)CCN(CC(=O)N2CCN(C4CCCC4)CC2)C3)c(C)c1 [Compound 549, 2-[2-(4-cyclopentylpiperazin-1-yl)-2-oxoethyl]-6-(4-methoxy-2-methylphenyl)-1,2,3,4-tetrahydroisoquinoline]
COc1ccc(-c2ccc3c(c2)CCN(CC(=O)N2CCN(C4CCCCC4)CC2)C3)c(C)c1 [Compound 550, 2-[2-(4-cyclohexylpiperazin-1-yl)-2-oxoethyl]-6-(4-methoxy-2-methylphenyl)-1,2,3,4-tetrahydroisoquinoline]
COc1ccccc1-c1ccc2c(c1)CCN(CC(=O)N1CCN(C3CCC3)CC1)C2 [Compound 551, 2-[2-(4-cyclobutylpiperazin-1-yl)-2-oxoethyl]-6-(2-methoxyphenyl)-1,2,3,4-tetrahydroisoquinoline]
COc1ccccc1-c1ccc2c(c1)CCN(CC(=O)N1CCN(C3CCCC3)CC1)C2 [Compound 552, 2-[2-(4-cyclopentylpiperazin-1-yl)-2-oxoethyl]-6-(2-methoxyphenyl)-1,2,3,4-tetrahydroisoquinoline]
COc1ccccc1-c1ccc2c(c1)CCN(CC(=O)N1CCN(C3CCCCC3)CC1)C2 [Compound 553, 2-[2-(4-cyclohexylpiperazin-1-yl)-2-oxoethyl]-6-(2-methoxyphenyl)-1,2,3,4-tetrahydroisoquinoline]
COc1ccc(C(C)C)cc1-c1ccc2c(c1)CCN(CC(=O)N1CCN(C3CCC3)CC1)C2 [Compound 554, 2-[2-(4-cyclobutylpiperazin-1-yl)-2-oxoethyl]-6-(5-isopropyl-2-methoxyphenyl)-1,2,3,4-tetrahydroisoquinoline]
COc1ccc(C(C)C)cc1-c1ccc2c(c1)CCN(CC(=O)N1CCN(C3CCCC3)CC1)C2 [Compound 555, 2-[2-(4-cyclopentylpiperazin-1-yl)-2-oxoethyl]-6-(5-isopropyl-2-methoxyphenyl)-1,2,3,4-tetrahydroisoquinoline]
COc1ccc(C(C)C)cc1-c1ccc2c(c1)CCN(CC(=O)N1CCN(C3CCCCC3)CC1)C2 [Compound 556, 2-[2-(4-cyclohexylpiperazin-1-yl)-2-oxoethyl]-6-(5-isopropyl-2-methoxyphenyl)-1,2,3,4-tetrahydroisoquinoline]
COc1ccc(Cl)cc1-c1ccc2c(c1)CCN(CC(=O)N1CCN(C3CCC3)CC1)C2 [Compound 557, 6-(5-chloro-2-methoxyphenyl)-2-[2-(4-cyclobutylpiperazin-1-yl)-2-oxoethyl]-1,2,3,4-tetrahydroisoquinoline]
COc1ccc(Cl)cc1-c1ccc2c(c1)CCN(CC(=O)N1CCN(C3CCCCC3)CC1)C2 [Compound 558, 6-(5-chloro-2-methoxyphenyl)-2-[2-(4-cyclohexylpiperazin-1-yl)-2-oxoethyl]-1,2,3,4-tetrahydroisoquinoline]
COc1ccc(OC)c(-c2ccc3c(c2)CCN(CC(=O)N2CCN(C4CCC4)CC2)C3)c1 [Compound 559, 2-[2-(4-cyclobutylpiperazin-1-yl)-2-oxoethyl]-6-(2,5-dimethoxyphenyl)-1,2,3,4-tetrahydroisoquinoline]
COc1ccc(OC)c(-c2ccc3c(c2)CCN(CC(=O)N2CCN(C4CCCC4)CC2)C3)c1 [Compound 560, 2-[2-(4-cyclopentylpiperazin-1-yl)-2-oxoethyl]-6-(2,5-dimethoxyphenyl)-1,2,3,4-tetrahydroisoquinoline]

Reference: US20110082130A1 (LIGAND PHARMACEUTICALS, INC., priority 2006, published 2011)
